The term IC50 denotes the concentration needed to halve the response being measured.

Our source for the Ki and IC50 values is patent US20120214802A1, “PYRROLIDINE COMPOUNDS WHICH INHIBIT BETA-SECRETASE ACTIVITY AND METHODS OF USE THEREOF” (priority 2009, published 2012).

The target of one test is T1, CYP3A4 (Homo sapiens, UniProt P08684).
T1 construct: host or cells: human liver microsomes
The test is described as follows: CYP3A4 inhibition (midazolam metabolism in human liver microsomes). Format: in vitro ADME. The following applies: substrate midazolam, read-out: CYP 3A4Ki. How it is done:
To evaluate the drug-drug interaction potential for compounds, the potency to inhibit the major metabolic cytochrome CYP450 isoform 3A4 was assessed. The inhibition constant Ki was determined for inhibition of the metabolism of midazolam, a CYP3A4 substrate.
CYP3A4 Ki assays were performed following a recently published protocol with slight modifications (Di, L., Kerns, E. H., Li, S. Q., and Carter, G. T. (2007) Comparison of cytochrome P450 inhibition assays for drug discovery using human liver microsomes with LC-MS, rhCYP450 isozymes with fluorescence, and double cocktail with LC-MS. International Journal of Pharmaceutics 335: 1-11). The P450 inhibition assay was performed in 96-well plates at 37.2° C. in a shaking incubator. The compounds were diluted from 5 mM stocks in 100% DMSO and incubated at seven final concentrations from 0.078 to 10 μM (0.1% DMSO in each final incubation), with human liver microsomes (HLM) at a final protein concentration of 0.1 mg/mL protein and a substrate concentration ranging from 1.25 to 10 μM.
The assay was standardized for both phosphate buffer (100 mM, pH 7.4) and the NADPH regenerating system (MgCl2, 3.3 mM; G6P, 3.3 mM; G6PD, 1 U/ml; NADP+, 1.3 mM). Eight replicate control samples (0.1% DMSO, no compound) were prepared. Assays (200 μL) were set up by mixing HLM+substrate stock, 10 μL of test article in 2% DMSO, and the substrate before initiating the reaction with the addition of the regenerating system mixture. Reactions were quenched following incubation for 20, 30 and 40 minutes as described following.
After incubation for the specified time in a humidified shaking incubator, 20 μL of the reaction mixture was removed and the reactions were terminated by adding 200 μL of cold acetonitrile. Samples were centrifuged at 1000×g for 15 minutes in Solvinert filter plate. The receptor plate was dried via speed vacuum at 40° C. The sample was reconstituted with a reconstitution buffer composed of 10% acetonitrile, 10% DMSO, 80% H2O with an internal standard added at a concentration of 100 ng/ml. MS-Analysis was completed using LC-MS/MS. Formation of 1′-hydroxymidazolam was measured by monitoring a specific SRM (342>203) transition for the CYP3A4 metabolite.
Data were expressed as the relative quantity of midazolam metabolite relative to control incubations. Initial velocities were obtained by multiplying the relative quantity by the initial substrate concentration and dividing by the incubation duration. Data were transformed to inverse of inivital velocity and expressed vs. inhibitor concentration [I] for determination of Ki by the Dixon method (Dixon, M. (1953) Biochemical Journal 55: 170-171) using where intercept [I]=−Ki was determined at multiple substrate concentrations.
In general terms: Liver microsomes are vesicles of endoplasmic reticulum, rich in cytochrome P450 enzymes.

Test [1] concerns the target memapsin 2 (Homo sapiens, UniProt P56817). Briefly: Inhibition of memapsin 2 beta-secretase activity (fluorogenic substrate FS-2). As to conditions: pH 4, 37° C., read-out: M2 Ki. Format: biochemical. On the procedure: Potency of compounds were determined by measurement of their inhibition of memapsin 2 activity toward a fluorescent substrate. Kinetic inhibition experiments were performed using the procedure as described in Ermolieff, et al. (Biochemistry 39:12450-12456 (2000), the teachings of which are incorporated hereby in their entirety). Briefly, assays were performed at pH 4, 37° C., by pre-incubation of memapsin 2 enzyme with compound for 20 minutes. Activity measurements were initiated by addition of a fluorogenic substrate FS-2 (Bachem Americas, Torrance, Calif.) MCA-SEVNLDAEFR-DNP (SEQ ID NO.: 2). The substrate was derived from 10 amino acids of the human amyloid precursor protein (APP), with the Swedish variant amino acids at the beta-secretase cleavage site. The terminal amino acid was modified from arginine to lysine to facilitate derivatization with a functional group for detection by autofluorescence. The amino acid sequence of the “core” peptide of the substrate is SEVNLDAEFK (SEQ ID NO.: 3). The amino terminus was derivatized with (7-methoxycoumarin-4-yl)acetyl (MCA), and the epsilon amine of the lysine side chain of the terminal residue (K in sequence SEVNLDAEFK (SEQ ID NO.: 3)) was derivatized with 2,4-dinitorphenyl (DNP).

In test [2] the target is T2, memapsin 2 (Cricetulus griseus, UniProt G3IAK4).
T2 construct: endogenous in cells; host or cells: Chinese hamster ovary cells over-expressing human APP695 (London + Swedish)
T2 sequence (G3IAK4 22-501): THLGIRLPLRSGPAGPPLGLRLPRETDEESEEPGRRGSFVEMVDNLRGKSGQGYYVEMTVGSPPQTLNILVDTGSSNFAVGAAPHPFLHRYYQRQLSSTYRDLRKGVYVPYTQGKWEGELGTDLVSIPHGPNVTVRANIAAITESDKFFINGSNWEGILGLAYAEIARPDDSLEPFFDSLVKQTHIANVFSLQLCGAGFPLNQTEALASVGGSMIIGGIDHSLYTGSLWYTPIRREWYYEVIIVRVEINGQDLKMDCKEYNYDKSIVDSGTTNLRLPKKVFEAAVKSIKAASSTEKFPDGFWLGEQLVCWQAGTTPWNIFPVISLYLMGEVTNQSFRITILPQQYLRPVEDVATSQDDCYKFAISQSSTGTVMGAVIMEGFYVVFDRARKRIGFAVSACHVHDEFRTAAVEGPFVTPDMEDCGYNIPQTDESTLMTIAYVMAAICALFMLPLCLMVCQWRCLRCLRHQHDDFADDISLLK
Briefly: Cellular Aβ IC50 determination (Aβ40 sandwich ELISA). As to conditions: CHO cells over-expressing human APP695 with London and Swedish mutations, 24 h, read-out: M2 IC50. Format: cell-based, Chinese hamster. How it is done:
The potency of compounds against memapsin 2 activity was determined in a cellular assay of Aβ production. […] Chinese hamster ovary cells that over-express human APP695 with the London and Swedish mutations were seeded in multi-well plates at 10% confluency. Compounds are dissolved in DMSO to concentrations near 1 mM, and diluted into culture media to a final concentration near 4 μM (final 0.4% DMSO). Compounds were diluted serially and applied to cells in multi-well plates 48 h after seeding. Incubation was continued in 5% CO2 at 37° C. for 24 h. Aliquots were removed and assayed for […] using a sandwich ELISA (BioSource International). Amount of Aβ40 over the range of concentration of compounds, relative to control incubations, were fit to a 4-parameter IC50 model.
A general note: ELISA stands for enzyme-linked immunosorbent assay.

A value given as a limit tells only on which side of the number the result lay.

Chain of memapsin 2 (Homo sapiens, UniProt P56817) (P56817 46-501): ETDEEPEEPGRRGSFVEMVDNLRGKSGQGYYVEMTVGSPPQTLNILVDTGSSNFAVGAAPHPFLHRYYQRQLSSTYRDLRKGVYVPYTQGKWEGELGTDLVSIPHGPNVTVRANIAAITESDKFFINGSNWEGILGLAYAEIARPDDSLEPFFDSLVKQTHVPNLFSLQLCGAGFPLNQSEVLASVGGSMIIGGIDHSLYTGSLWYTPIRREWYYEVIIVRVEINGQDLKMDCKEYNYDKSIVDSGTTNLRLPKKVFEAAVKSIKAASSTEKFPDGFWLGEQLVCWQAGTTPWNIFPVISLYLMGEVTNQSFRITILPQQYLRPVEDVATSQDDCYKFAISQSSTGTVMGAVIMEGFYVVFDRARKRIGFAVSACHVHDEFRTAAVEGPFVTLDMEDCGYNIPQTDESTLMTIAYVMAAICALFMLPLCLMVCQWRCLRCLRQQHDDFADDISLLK
T1 sequence (P08684 whole entry): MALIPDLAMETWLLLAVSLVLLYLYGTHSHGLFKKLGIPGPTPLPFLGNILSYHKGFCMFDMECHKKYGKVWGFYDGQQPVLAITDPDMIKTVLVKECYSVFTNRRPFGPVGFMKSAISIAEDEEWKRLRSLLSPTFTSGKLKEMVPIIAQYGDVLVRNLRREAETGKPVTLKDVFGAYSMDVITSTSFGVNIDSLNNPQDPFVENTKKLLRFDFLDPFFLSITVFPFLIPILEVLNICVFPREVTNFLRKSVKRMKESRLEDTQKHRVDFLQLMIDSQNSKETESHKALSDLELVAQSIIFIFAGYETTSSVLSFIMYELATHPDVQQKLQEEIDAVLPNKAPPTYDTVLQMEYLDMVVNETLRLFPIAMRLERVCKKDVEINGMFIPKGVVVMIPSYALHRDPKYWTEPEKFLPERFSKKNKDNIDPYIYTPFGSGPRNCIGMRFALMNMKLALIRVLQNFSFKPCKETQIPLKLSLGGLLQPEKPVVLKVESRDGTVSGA

As to `Cc1coc([C@H]2CCCN2C(=O)c2cc(C(=O)N[C@@H](Cc3ccccc3)[C@H](O)[C@H]3CCCN3)cc(N(C)S(C)(=O)=O)c2)n1` [1-28, N-((1R,2S)-1-hydroxy-3-phenyl-1-((R)-pyrrolidin-2-yl)propan-2-yl)-3-(N-methylmethylsulfonamido)-5-((R)-2-(4-methyloxazol-2-yl)pyrrolidine-1-carbonyl)benzamide], the Ki was over 10000 nM at CYP3A4 and under 250 nM at memapsin 2 [1].
In the case of `Cc1csc([C@H]2CCCN2C(=O)c2cc(C(=O)N[C@@H](Cc3ccccc3)[C@H](O)[C@H]3CCCN3)cc(-c3cnccn3)c2)n1` [1-20, N-((1R,2S)-1-hydroxy-3-phenyl-1-((R)-pyrrolidin-2-yl)propan-2-yl)-3-((R)-2-(4-methylthiazol-2-yl)pyrrolidine-1-carbonyl)-5-(pyrazin-2-yl)benzamide], on memapsin 2 [2], the IC50 is under 500 nM. Moreover, the Ki is over 10000 nM at CYP3A4 and under 250 nM at memapsin 2 [1].
Taken in the same sequence, the figures for `Cc1cc(C(=O)N[C@@H](Cc2ccccc2)[C@H](O)CNCc2cncc(C(C)C)c2)cc(C(=O)N2CCC[C@@H]2c2nc(C)cs2)c1` [2-8, N-((2S,3R)-3-hydroxy-4-((5-isopropylpyridin-3-yl)methylamino)-1-phenylbutan-2-yl)-3-methyl-5-((R)-2-(4-methylthiazol-2-yl)pyrrolidine-1-carbonyl)benzamide, reference compound] were under 500 nM, under 1000 nM and under 250 nM.
Turning to `Cc1csc([C@H]2CCCN2C(=O)c2cccc(C(=O)N[C@@H](Cc3ccccc3)[C@H](O)CNCc3cccc(C(C)(C)C)c3)c2)n1` [2-10, N-((2S,3R)-4-(3-tert-butylbenzylamino)-3-hydroxy-1-phenylbutan-2-yl)-3-((R)-2-(4-methylthiazol-2-yl)pyrrolidine-1-carbonyl)benzamide, reference compound], at memapsin 2 [2], the IC50 is under 500 nM. Further, the figures for the Ki at CYP3A4 and at memapsin 2 [1] were under 1000 nM and under 250 nM, respectively.
Consider `Cc1csc([C@H]2CCCN2C(=O)c2cc(C(=O)N[C@@H](Cc3ccccc3)[C@H](O)[C@H]3CCCN3)cc(N3CCOCC3)c2)n1` [1-33, N-((1R,2S)-1-hydroxy-3-phenyl-1-((R)-pyrrolidin-2-yl)propan-2-yl)-3-((R)-2-(4-methylthiazol-2-yl)pyrrolidine-1-carbonyl)-5-morpholinobenzamide], for which the IC50 at memapsin 2 [2] was over 1000 nM. Moreover, the Ki at CYP3A4 is 5000 to 10000 nM; at memapsin 2 [1] it was over 750 nM.
Taken in the same sequence, the figures for `Cc1csc([C@H]2CCCN2C(=O)c2cc(CF)cc(C(=O)N[C@@H](Cc3ccccc3)[C@H](O)[C@H]3C[C@@H](OCc4ccccc4)CN3)c2)n1` [1-36, N-((1R,2S)-1-((2R,4R)-4-(benzyloxy)pyrrolidin-2-yl)-1-hydroxy-3-phenylpropan-2-yl)-3-(fluoromethyl)-5-((R)-2-(4-methylthiazol-2-yl)pyrrolidine-1-carbonyl)benzamide] were under 500 nM, over 10000 nM and under 250 nM.
Taken in the same sequence, the figures for `Cc1csc(CN(C(=O)c2cccc(C(=O)N[C@@H](Cc3ccccc3)[C@H](O)CNCc3cccc(C(F)(F)F)c3)c2)C2CC2)n1` [2-9, N1-cyclopropyl-N3-((2S,3R)-3-hydroxy-1-phenyl-4-(3-(trifluoromethyl)benzylamino)butan-2-yl)-N1-((4-methylthiazol-2-yl)methyl)isophthalamide, reference compound] were under 500 nM, under 1000 nM and under 250 nM.
As for `Cc1cc(C(=O)N[C@@H](Cc2ccccc2)[C@H](O)CNCc2cncc(C(C)(C)C)c2)cc(C(=O)N2CCC[C@@H]2c2nc(C)co2)c1` [2-11, N-((2S,3R)-4-((5-tert-butylpyridin-3-yl)methylamino)-3-hydroxy-1-phenylbutan-2-yl)-3-methyl-5-((R)-2-(4-methyloxazol-2-yl)pyrrolidine-1-carbonyl)benzamide, reference compound], the half-inhibitory concentration (IC50) on memapsin 2 [2] is under 500 nM. The Ki at CYP3A4 is under 1000 nM; at memapsin 2 [1], under 250 nM.
Consider `Cc1coc([C@H]2CCCN2C(=O)c2cc(C(=O)N[C@@H](Cc3ccccc3)[C@H](O)[C@H]3CCCN3)cc(-n3cccc3)c2)n1` [1-26, N-((1R,2S)-1-hydroxy-3-phenyl-1-((R)-pyrrolidin-2-yl)propan-2-yl)-3-((R)-2-(4-methyloxazol-2-yl)pyrrolidine-1-carbonyl)-5-(1H-pyrrol-1-yl)benzamide], for which the Ki was 5000 to 10000 nM at CYP3A4 and under 250 nM on memapsin 2 [1].
For `COc1cc(C(=O)N[C@@H](Cc2ccccc2)[C@H](O)[C@H]2CCCN2)cc(C(=O)N2CCC[C@@H]2c2nc(C)cs2)c1` [1-34, N-((1R,2S)-1-hydroxy-3-phenyl-1-((R)-pyrrolidin-2-yl)propan-2-yl)-3-methoxy-5-((R)-2-(4-methylthiazol-2-yl)pyrrolidine-1-carbonyl)benzamide], the IC50 at memapsin 2 [2] was over 1000 nM. Further, the Ki was 5000 to 10000 nM at CYP3A4 and under 250 nM at memapsin 2 [1].
Regarding `Cc1csc([C@H]2CCCN2C(=O)c2cc(C(=O)N[C@@H](Cc3ccccc3)[C@H](O)[C@H]3C[C@@H](OCc4ccccc4)CN3)cc(-c3ncco3)c2)n1` [1-52, N-((1R,2S)-1-((2R,4R)-4-(benzyloxy)pyrrolidin-2-yl)-1-hydroxy-3-phenylpropan-2-yl)-3-((R)-2-(4-methylthiazol-2-yl)pyrrolidine-1-carbonyl)-5-(oxazol-2-yl)benzamide], the IC50 at memapsin 2 [2] was under 500 nM. For the same molecule, the Ki on CYP3A4 was 1000 to 5000 nM; at memapsin 2 [1], under 250 nM.
For the molecule `Cc1csc(CN(C)C(=O)c2cc(C(=O)N[C@@H](Cc3ccccc3)[C@H](O)[C@H]3CCCN3C(=O)OC(C)(C)C)cc(-c3ncco3)c2)n1` [1-7, (R)-tert-butyl 2-((1S,2S)-1-hydroxy-2-(3-(methyl((4-methylthiazol-2-yl)methyl)carbamoyl)-5-(oxazol-2-yl)benzamido)-3-phenylpropyl)pyrrolidine-1-carboxylate], on memapsin 2 [2], the IC50 is over 1000 nM. The Ki on memapsin 2 [1] is over 750 nM.
Taken in the same sequence, the figures for `Cc1csc([C@H]2CCCN2C(=O)c2cccc(C(=O)N[C@@H](Cc3ccccc3)[C@H](O)[C@H]3C[C@H](F)CN3)c2)n1` [1-47, N-((1R,2S)-1-((2R,4S)-4-fluoropyrrolidin-2-yl)-1-hydroxy-3-phenylpropan-2-yl)-3-((R)-2-(4-methylthiazol-2-yl)pyrrolidine-1-carbonyl)benzamide] were over 1000 nM and 250 to 750 nM.
Taken in the same sequence, the figures for `Cc1csc([C@H]2CCCN2C(=O)c2cccc(C(=O)N[C@@H](Cc3ccccc3)[C@H](O)[C@H]3CC[C@@H](C)N3)c2)n1` [1-51, N-((1R,2S)-1-hydroxy-1-((2R,5R)-5-methylpyrrolidin-2-yl)-3-phenylpropan-2-yl)-3-((R)-2-(4-methylthiazol-2-yl)pyrrolidine-1-carbonyl)benzamide] were over 1000 nM and over 750 nM.
